What is called IC50 is the concentration that inhibits the measured activity by half.

Chain of E1-E2-DNA complex (P04015 whole entry, one chain of several): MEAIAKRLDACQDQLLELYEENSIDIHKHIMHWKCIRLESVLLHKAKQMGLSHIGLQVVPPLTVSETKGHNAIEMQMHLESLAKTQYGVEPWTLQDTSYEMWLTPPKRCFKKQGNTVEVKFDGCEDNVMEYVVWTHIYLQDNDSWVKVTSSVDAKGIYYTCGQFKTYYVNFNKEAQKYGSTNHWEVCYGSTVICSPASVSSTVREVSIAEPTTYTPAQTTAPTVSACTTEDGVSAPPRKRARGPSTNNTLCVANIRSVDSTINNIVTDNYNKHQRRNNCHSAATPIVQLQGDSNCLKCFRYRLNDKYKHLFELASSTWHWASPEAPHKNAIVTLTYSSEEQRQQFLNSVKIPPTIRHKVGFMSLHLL

In this experiment the target is E1-E2-DNA complex (Human papillomavirus 11, UniProt P04015). Nature of the experiment: E2-dependent E1 DNA binding assay (E1-E2 DNA assay). Particulars: E1-E2 DNA assay of Example 11, HPV-11. The procedure:
This particular assay determines the ability of a test compound to inhibit the activity (IC50) of HPV-11 DNA replication. More specifically, in the assay described herein, the inhibitory activity of the test compound is evaluated based on its ability to interfere with the E1-E2-DNA origin of replication interaction, thereby inhibiting initiation of viral DNA replication.
This assay was modeled on a similar assay for SV40 T Antigen described by McKay (J. Mol. Biol., 1981,145:471). A 400bp radiolabeled DNA probe, containing the -HPV-11 origin of replication (Chiang et al.., 1992, Proc. Natl.-Acad. Sci. USA 89:5799) was produced by pcr, using plasmid pBluescript™ SK encoding the origin (nucleotides 7886-61 of the HPV-11 genome in unique BAMH1 site) as template and primers flanking the origin. Radiolabel was incorporated as [33p]dCTP. Binding assay buffer consisted of: 20 mM Tris pH 7.6, 100 mM NaCI, 1 mM DTT, 1 mM EDTA.
Other reagents used were protein A-SPA beads (type II, Amersham) and K72 rabbit polyclonal antiserum, raised against a peptide corresponding to the C-terminal 14 amino acids of HPV-11 E1. Following the protocol from Amersham, one bottle of beads was mixed with 25 mL of binding assay buffer. For the assay, a saturating amount of K72 antiserum was added to the beads and the mixture was incubated for 1 h, washed with one volume of binding assay buffer, and then resuspended in the same volume of fresh binding assay buffer. Binding reactions contained 8 ng of E2, approximately 100-200 ng of purified E1, and 0.4 ng of radiolabeled probe in a total of 80 µL of binding assay buffer. After 1 h at room temperature, 25 µL of K72 antibody-SPA bead suspension was added to with the binding reaction and mixed. After an additional hour of incubation at room temperature, the reactions were centrifuged briefly to pellet the beads and the extent of complex formation was determined by scintillation counting on a Packard TopCount™. Typically, the signal for reactions containing E1 and E2 was 20-30 fold higher than the background observed when either E1, E2, or both was omitted.
On to `Cc1cccc(NC(=O)C2C(c3ccc(Cl)cc3)OC3(C(=O)c4ccccc4C3=O)C2C(=O)O)c1` (stereo not shown) [Compound 1012], for which the IC50 fell in the range of 5 to 50 µM. Regarding `O=C(Nc1ccc(N2CCOCC2)cc1)C1C(c2ccc(Cl)c(Cl)c2)OC2(C(=O)c3ccccc3C2=O)C1C(=O)O` (stereo not shown) [Compound 1034], the concentration for half-maximal inhibition (IC50) was under 0.5 µM. As to `CC(=O)c1ccc(NC(=O)C2C(C=Cc3cccc(Cl)c3Cl)OC3(C(=O)c4ccccc4C3=O)C2C(=O)O)cc1` (stereo not shown) [Compound 4010], the half-inhibitory concentration (IC50) was 0.5 to 5 µM. As for `COc1ccc(NC(=O)C2C(c3ccc(Cl)cc3)OC3(C(=O)c4ccccc4C3=O)C2C(=O)O)cc1OC` (stereo not shown) [Compound 1004], the figure is 5 to 50 µM. `O=C1C2C(c3ccc(C(F)(F)F)cc3)OC3(C(=O)c4ccccc4C3=O)C2C(=O)N1c1ccc2c(c1)OCO2` (stereo not shown) [Compound 2008] returned an IC50 of 5 to 50 µM. `CC(=O)c1ccc(NC(=O)C2C(C(Br)=Cc3ccccc3)OC3(C(=O)c4ccccc4C3=O)C2C(=O)O)cc1` (racemic) [Compound 4012] registered an IC50 of 5 to 50 µM. As for `O=C(NC1CCCCC1)C1C(c2ccc(Br)c(Br)c2)OC2(C(=O)c3ccccc3C2=O)C1C(=O)O` (stereo not shown) [Compound 1099], the IC50 was under 0.5 µM. Regarding `O=C1C2C(c3ccc(Cl)cc3)OC3(C(=O)c4ccccc4C3=O)C2C(=O)N1c1ccc2c(c1)OCO2` (stereo not shown) [Compound 2001], the concentration for half-maximal inhibition (IC50) fell in the range of 5 to 50 µM.

The compound `O=C(Nc1ccccc1Cl)C1C(c2ccc(Cl)c(Cl)c2)OC2(C(=O)c3ccccc3C2=O)C1C(=O)O` (stereo not shown) [Compound 1123] returned an IC50 of under 0.5 µM. As for `CC(C)(C)NC(=O)C1C(c2ccc(Cl)c(Cl)c2)OC2(C(=O)c3ccccc3C2=O)C1C(=O)O` (stereo not shown) [Compound 1046], the half-inhibitory concentration (IC50) is 0.5 to 5 µM. As for `O=C(Nc1ccc(F)c(F)c1)C1C(c2ccc(Br)c(Br)c2)OC2(C(=O)c3ccccc3C2=O)C1C(=O)O` (stereo not shown) [Compound 1105], the figure is 0.5 to 5 µM; as for `O=C(Nc1ccc(Cl)cc1)C1C(c2ccc(F)c(F)c2)OC2(C(=O)c3ccccc3C2=O)C1C(=O)O` (stereo not shown) [Compound 1062], 5 to 50 µM; as for `CC(C)(C)OC(=O)Nc1ccc(N2C(=O)C3C(c4ccc(Cl)c(Cl)c4)OC4(C(=O)c5ccccc5C4=O)C3C2=O)cc1` (stereo not shown) [Compound 2018], 5 to 50 µM.

`CN(CCN(C)c1ccc([N+](=O)[O-])c2nonc12)C(=O)CNCc1ccc(NC(=O)C2C(c3ccc(Cl)c(Cl)c3)OC3(C(=O)c4ccccc4C3=O)C2C(=O)O)cc1` (stereo not shown) [Compound 1140] yielded an IC50 of 0.5 to 5 µM. `Cc1ccc2c(c1)C1(O)OC(=O)C3C(C(=O)NCCc4ccccc4Cl)C(c4ccc(Br)c(Br)c4)OC31C2=O` (single isomer, unassigned) [Compound B1005] showed an IC50 of 5 to 50 µM. As for `O=C(Nc1ccc(Br)c(Cl)c1)C1C(c2ccc(F)c(Cl)c2)OC2(C(=O)c3ccccc3C2=O)C1C(=O)O` (stereo not shown) [Compound 1121], the figure is 0.5 to 5 µM; as for `O=C(NC1CCCCC1)C1C(c2ccc(Cl)cc2)OC23C(=O)c4ccccc4C2(O)OC(=O)C13` (racemic) [Compound 3002], 5 to 50 µM; as for `O=C(Nc1ccccc1Cl)C1C(c2ccc(Cl)cc2)OC23C(=O)c4ccccc4C2(O)OC(=O)C13` (racemic) [Compound 3006], 5 to 50 µM.

The compound `O=C(NCCc1cccs1)C1C(c2ccc(Cl)c(Cl)c2)OC2(C(=O)c3ccccc3C2=O)C1C(=O)O` (stereo not shown) [Compound 1138] had an IC50 of under 0.5 µM. With `O=C1C2C(c3ccc(Cl)cc3)OC3(C(=O)c4ccccc4C3=O)C2C(=O)N1c1cccc(C(F)(F)F)c1` (stereo not shown) [Compound 2011] the figure was 5 to 50 µM.

Regarding `CC(=O)c1ccc(NC(=O)C2C(c3ccc(Cl)c(Cl)c3)OC3(C(=O)c4ccccc4C3=O)C2C(=O)O)cc1` (stereo not shown) [Compound 1021], the concentration for half-maximal inhibition (IC50) is under 0.5 µM. `Cc1cc2c(cc1F)C(=O)C1(OC(c3ccc(Br)c(Br)c3)C(C(=O)Nc3ccc(N4CCOCC4)cc3)C1C(=O)O)C2=O` (single isomer, unassigned) [Compound A1015] returned an IC50 of under 0.5 µM.

With `Cc1cccc2c1C(=O)C1(OC(c3ccc(Cl)c(Cl)c3)C(C(=O)Nc3ccc4c(c3)OCO4)C1C(=O)O)C2=O` (stereo not shown) [Compound 1041], the IC50 fell in the range of 0.5 to 5 µM. On to `O=C(NCCc1ccccc1)C1C(c2ccc(F)c(Cl)c2)OC2(C(=O)c3ccccc3C2=O)C1C(=O)O` (stereo not shown) [Compound 1115], for which the IC50 is 0.5 to 5 µM. As for `Cc1cc2c(s1)C1(O)OC(=O)C3C(C(=O)Nc4ccc(N5CCOCC5)cc4)C(c4ccc(Br)c(Br)c4)OC31C2=O` (single isomer, unassigned) [Compound D1002], the figure is under 0.5 µM. As for `O=C(Nc1ccc2c(c1)OCO2)C1C(c2ccc(C(F)(F)F)c(F)c2)OC2(C(=O)c3ccccc3C2=O)C1C(=O)O` (stereo not shown) [Compound 1045], the figure is 0.5 to 5 µM; as for `O=C(Nc1cccc(Cl)c1)C1C(c2ccc(Cl)cc2)OC2(C(=O)c3ccccc3C2=O)C1C(=O)O` (stereo not shown) [Compound 1006], 5 to 50 µM. `CC(=O)NCc1ccc(NC(=O)C2C(c3ccc(Br)c(Br)c3)OC34C(=O)c5cc(C)sc5C3(O)OC(=O)C24)cc1` (single isomer, unassigned) [Compound D1004] returned an IC50 of under 0.5 µM. With `O=C(Nc1ccc(C2CCCCC2)cc1)C1C(c2ccc(Cl)c(Cl)c2)OC2(C(=O)c3ccccc3C2=O)C1C(=O)O` (stereo not shown) [Compound 1054] the figure was under 0.5 µM; with `O=C(Nc1ccccc1)C1C(c2ccc(F)c(F)c2)OC2(C(=O)c3ccccc3C2=O)C1C(=O)O` (stereo not shown) [Compound 1068], 5 to 50 µM. For `O=C(NC1CC1c1ccccc1)C1C(c2ccc(Cl)c(Cl)c2)OC2(C(=O)c3ccccc3C2=O)C1C(=O)O` (stereo not shown) [Compound 1066], the half-inhibitory concentration (IC50) was under 0.5 µM.

Compound `O=C1C2C(c3ccc(Cl)c(Cl)c3)OC3(C(=O)c4ccccc4C3=O)C2C(=O)N1c1ccc(O)cc1` (stereo not shown) [Compound 2021] yielded a half-maximal inhibitory concentration (IC50) of under 0.5 µM. With `CC(=O)c1ccc(NC(=O)C2C(c3cccc(Cl)c3)OC3(C(=O)c4ccccc4C3=O)C2C(=O)O)cc1` (stereo not shown) [Compound 1032] the figure was 0.5 to 5 µM.

In turn, `O=C(Nc1ccc(N2CCOCC2)cc1)C1C(c2ccc(Br)c(Br)c2)OC2(C(=O)c3ccccc3C2=O)C1C(=O)O` (single isomer, unassigned) [Compound A1012] yielded an IC50 of 5 to 50 µM.

Compound `O=C(Nc1ccc(OC(F)(F)F)cc1)C1C(c2ccc(F)c(Cl)c2)OC2(C(=O)c3ccccc3C2=O)C1C(=O)O` (stereo not shown) [Compound 1131] displayed an IC50 of 0.5 to 5 µM. Take `N#Cc1cccc(NC(=O)C2C(c3ccc(Cl)c(Cl)c3)OC3(C(=O)c4ccccc4C3=O)C2C(=O)O)c1` (stereo not shown) [Compound 1127]: the IC50 was in the range of 0.5 to 5 µM. In turn, `O=C(Nc1cc2c(cc1[N+](=O)[O-])OCO2)C1C(c2ccc(Cl)c(Cl)c2)OC2(C(=O)c3ccccc3C2=O)C1C(=O)O` (stereo not shown) [Compound 1117] yielded an IC50 of 0.5 to 5 µM. In the case of `O=C(Nc1ccc(Cl)c(Cl)c1)C1C(c2ccc(Br)c(Br)c2)OC2(C(=O)c3ccccc3C2=O)C1C(=O)O` (stereo not shown) [Compound 1134], the IC50 is under 0.5 µM.

Take `Cc1ccc(N2C(=O)C3C(c4ccc(Cl)cc4)OC4(C(=O)c5ccccc5C4=O)C3C2=O)cc1` (stereo not shown) [Compound 2006]: the concentration for half-maximal inhibition (IC50) was 5 to 50 µM. As to `CC(=O)c1ccc(NC(=O)C2C(c3ccc(Cl)c(Cl)c3)OC3(C(=O)c4ccc(F)cc4C3=O)C2C(=O)O)cc1` (stereo not shown) [Compound 1106], the half-inhibitory concentration (IC50) lay in the range of 0.5 to 5 µM. As to `COc1ccc(N2C(=O)C3C(c4ccc(Cl)cc4)OC4(C(=O)c5ccccc5C4=O)C3C2=O)cc1OC` (stereo not shown) [Compound 2002], the IC50 fell in the range of 5 to 50 µM. Consider `O=C(Nc1ccc2c(c1)OCO2)C1C(c2ccc(F)c(Cl)c2)OC2(C(=O)c3ccccc3C2=O)C1C(=O)O` (stereo not shown) [Compound 1030], for which the concentration for half-maximal inhibition (IC50) lay in the range of 0.5 to 5 µM. `CCCCC(=O)Nc1cc(C2OC3(C(=O)c4ccccc4C3=O)C(C(=O)O)C2C(=O)Nc2ccc(C(C)=O)cc2)ccc1Cl` (stereo not shown) [Compound 1141] displayed an IC50 of 0.5 to 5 µM. As for `Cc1ccc2c(c1)C(=O)C1(OC(c3ccc(Br)c(Br)c3)C(C(=O)Nc3ccc(N4CCOCC4)cc3)C1C(=O)O)C2=O` (single isomer, unassigned) [Compound A1014], the figure is under 0.5 µM; as for `Cc1cc2c(s1)C(=O)C13OC(c4ccc(Br)c(Br)c4)C(C(=O)Nc4ccc(CNC(=O)OC(C)(C)C)cc4)C1C(=O)OC23O` (stereo not shown) [Compound C1003], 0.5 to 5 µM; as for `COc1ccc2c(c1)C(=O)C1(OC(c3ccc(Cl)c(Cl)c3)C(C(=O)Nc3ccc(C(C)=O)cc3)C1C(=O)O)C2=O` (stereo not shown) [Compound 1130], 5 to 50 µM. With `O=C(c1ccccc1)c1cccc(NC(=O)C2C(c3ccc(Cl)c(Cl)c3)OC3(C(=O)c4ccccc4C3=O)C2C(=O)O)c1` (stereo not shown) [Compound 1100] the figure was 0.5 to 5 µM; with `CC(C)(C)c1ccc(NC(=O)C2C(c3ccc(Cl)c(Cl)c3)OC3(C(=O)c4ccccc4C3=O)C2C(=O)O)cc1` (stereo not shown) [Compound 1025], 0.5 to 5 µM; with `CC(=O)c1ccc(NC(=O)C2C(c3ccc(Cl)c(Cl)c3)OC3(C(=O)c4ccc(F)cc4C3=O)C2C(=O)O)cc1` (stereo not shown) [Compound 1107], 0.5 to 5 µM.
